Laboratory results taken from patent publication US8445512B2, “Substituted quinoline-3-carboxamides as KCNQ2/3 modulators” (Gruenenthal GmbH, priority 2010, dated 2013).

Target: T1, KCNQ2/3 channels (Homo sapiens, UniProt O43525+O43526)
T1 construct: expressed in transfected cells
Experiment: Fluorescence assay using a voltage sensitive dye (fluorimetry)
Type: cell-based
Settings: CHO-K1 cells expressing KCNQ2/3 channels; for Emax: relative to retigabine = 100%, read-out: Fluorimetry % efficacy (retigabine = 100%)
Procedure: Method I. Fluorescence Assay Using a Voltage Sensitive Dye (Fluorimetry)
[…] CHO-K1 cells expressing KCNQ2/3 channels are cultivated adherently at 37° C., 5% CO2 and 95% humidity in cell culture bottles (e.g. 80 cm^2 TC flasks, Nunc) with DMEM-high glucose (Sigma Aldrich, D7777) including 10% FCS (PAN Biotech, e.g. 3302-P270521) or alternatively MEM Alpha Medium (1×, liquid, Invitrogen, #22571), 10% fetal calf serum (FCS) (Invitrogen, #10270-106, heat-inactivated) and the necessary selection antibiotics.
Before being sown out for the measurements, the cells are washed with 1×DPBS buffer Ca^2+/Mg^2+-free (e.g. Invitrogen, #14190-094) and detached from the bottom of the culture vessel by using Accutase (PAA Laboratories, #L11-007) (incubation with Accutase for 15 min at 37° C.). The cell number is determined using a CASY™ cell counter (TCC, Schärfe System). Depending on the optimal density for each individual cell line, 20,000-30,000 cells/well/100 μl are seeded onto 96-well Corning™ CellBIND™ assay plates (Flat Clear Bottom Black Polystyrene Microplates, #3340). Freshly seeded cells are then left to settle for one hour at room temperature, followed by incubation for 24 hours at 37° C., 5% CO2 and 95% humidity.
The voltage-sensitive fluorescent dye from the Membrane Potential Assay Kit (Red™ Bulk format part R8123 for FLIPR, MDS Analytical Technologies™) is prepared by dissolving the contents of one vessel Membrane Potential Assay Kit Red Component A in 200 ml of extracellular buffer (ES buffer, 120 mM NaCl, 1 mM KCl, 10 mM HEPES, 2 mM CaCl2, 2 mM MgCl2, 10 mM glucose; pH 7.4). After removal of the nutrient medium, the cells are washed once with 200 μl of ES buffer, then loaded for 45 min at room temperature in 100 μl of dye solution in the dark.
Fluorescence measurements are carried out in a BMG Labtech FLUOstar™, BMG Labtech NOVOstar™ or BMG Labtech POLARstar™ instrument (525 nm excitation, 560 nm emission, Bottom Read mode). After incubation with the dye, 50 μl of the test substances in the desired concentrations, or 50 μl of ES buffer for control purposes, are applied to the wells of the assay plate and incubated for 30 min at room temperature while being shielded from light. The fluorescence intensity of the dye is then measured for 5 min and the fluorescence value F1 of each well is thus determined at a given, constant time. 15 μl of a KCl solution are then added to each well (final concentration of potassium ions 92 mM). The change in fluorescence intensity is subsequently monitored until all the relevant values have been obtained (mainly 5-30 min). At a given time post KCl application, a fluorescence value F2 is determined, in this case at the time of the fluorescence peak.
For calculation, the fluorescence intensity F2 is corrected for the fluorescence intensity F1, and the activity (ΔF/F) of the target compound on the potassium channel is determined as follows:
In order to determine whether a substance has agonistic activity,
[formula] can be related to
[formula] of control wells.
[formula] is determined by adding to the well only the buffer solution instead of the test substance, determining the value F1K of the fluorescence intensity, adding the potassium ions as described above, and measuring a value F2K of the fluorescence intensity. F2K and F1K are then calculated as follows: […]
A substance has an agonistic activity on the potassium channel if
[formula] is greater than
Independently of the comparison of
[formula] it is possible to conclude that a target compound has agonistic activity if
[formula] increases dose dependently. Calculations of EC50 and IC50 values are carried out with the aid of ‘Prism v4.0’ software (GraphPad Software™) Method II. Low-Intensity Tail Flick Test (Rat)

| Structure (SMILES) | EC50 | Emax |
| --- | --- | --- |
| CCCc1nc2cc(C(F)(F)F)ccc2c(C)c1C(=O)NCC1CCCCCC1 [Example 2, N-(Cycloheptyl-methyl)-4-methyl-2-propyl-7-(trifluoromethyl)-quinoline-3-carboxylic acid amide] | 327 nM | 104% |
| CCc1nc2cc(C(F)(F)F)ccc2c(C)c1C(=O)NCc1ccc(F)cc1 [Example 5, 2-Ethyl-N-[(4-fluorophenyl)-methyl]-4-methyl-7-(trifluoromethyl)-quinoline-3-carboxylic acid amide] | 266 nM | 157% |
| CC(C)c1nc2cc(C(F)(F)F)ccc2cc1C(=O)NCc1cccc(F)c1 [Example 11, N-[(3-Fluorophenyl)-methyl]-2-isopropyl-7-(trifluoromethyl)-quinoline-3-carboxylic acid amide] | 246 nM | 166% |
| CC(C)(C)c1nc2cc(C(F)(F)F)ccc2cc1C(=O)NCc1cccc(F)c1 [Example 13, 2-tert-Butyl-N-[(3-fluorophenyl)-methyl]-7-(trifluoromethyl)-quinoline-3-carboxylic acid amide] | 829 nM | 125% |
| CC(C)(C)c1nc2cc(C(F)(F)F)ccc2cc1C(=O)NCc1ccc(F)cc1 [Example 14, 2-tert-Butyl-N-[(4-fluorophenyl)-methyl]-7-(trifluoromethyl)-quinoline-3-carboxylic acid amide] | 738 nM | 144% |
| Cc1c(C(=O)NCc2cccc(F)c2)c(CO)nc2cc(C(F)(F)F)ccc12 [Example 17, N-[(3-fluorophenyl)-methyl]-2-(hydroxymethyl)-4-methyl-7-(trifluoromethyl)-quinoline-3-carboxylic acid amide] | 2880 nM | 102% |
| Cc1c(C(=O)NCc2ccc(F)cc2)c(C2CCCC2)nc2cc(C(F)(F)F)ccc12 [Example 21, 2-Cyclopentyl-N-[(4-fluorophenyl)-methyl]-4-methyl-7-(trifluoromethyl)-quinoline-3-carboxylic acid amide] | 223 nM | 178% |
| CCCc1nc2cc(C(F)(F)F)ccc2c(C)c1C(=O)NCCCC(C)(C)C [Example 22, N-(4,4-Dimethyl-pentyl)-4-methyl-2-propyl-7-(trifluoromethyl)-quinoline-3-carboxylic acid amide] | 185 nM | 277% |
| C/C=C/c1nc2cc(C(F)(F)F)ccc2c(C)c1C(=O)NCc1cccc(F)c1 [Example 23, N-[(3-fluorophenyl)-methyl]-4-methyl-2-[(E)-prop-1-enyl]-7-(trifluoromethyl)-quinoline-3-carboxylic acid amide] | 446 nM | 130% |
| Cc1c(C(=O)NCc2cccc(F)c2)c(CN(C)C)nc2cc(C(F)(F)F)ccc12 [Example 31, 2-(dimethylaminomethyl)-N-[(3-fluorophenyl)-methyl]-4-methyl-7-(trifluoromethyl)-quinoline-3-carboxylic acid amide] | 1850 nM | 40% |
| CCc1nc2cc(C(F)(F)F)ccc2c(C)c1C(=O)NCc1ccc(F)c(C)c1 [Example 32, 2-Ethyl-N-[(4-fluoro-3-methyl-phenyl)-methyl]-4-methyl-7-(trifluoromethyl)-quinoline-3-carboxylic acid amide] | 317 nM | 133% |
| CCc1nc2cc(C#N)ccc2c(C)c1C(=O)NCc1cccc(F)c1 [Example 33, 7-Cyano-2-ethyl-N-[(3-fluorophenyl)-methyl]-4-methyl-quinoline-3-carboxylic acid amide] | 1020 nM | 121% |
| CCc1nc2cc(C(F)(F)F)ccc2c(C)c1C(=O)NCc1ccc(C)c(F)c1 [Example 34, 2-Ethyl-N-[(3-fluoro-4-methyl-phenyl)-methyl]-4-methyl-7-(trifluoromethyl)-quinoline-3-carboxylic acid amide] | 312 nM | 139% |
| CCc1nc2cc(C#N)ccc2c(C)c1C(=O)NCc1ccc(F)cc1 [Example 35, 7-Cyano-2-ethyl-N-[(4-fluorophenyl)-methyl]-4-methyl-quinoline-3-carboxylic acid amide] | 578 nM | 97% |
| Cc1c(C(=O)NCc2cccc(F)c2)c(C(C)C)nc2cc(C#N)ccc12 [Example 39, 7-Cyano-N-[(3-fluorophenyl)-methyl]-2-isopropyl-4-methyl-quinoline-3-carboxylic acid amide] | 215 nM | 174% |

Stronger by EC50, values ahead:

| EC50 | Emax | Structure (SMILES) |
| --- | --- | --- |
| 160 nM | 140% | CCCc1nc2cc(C(F)(F)F)ccc2c(C)c1C(=O)NCc1cccs1 [Example 1, 4-Methyl-2-propyl-N-(thiophen-2-yl-methyl)-7-(trifluoromethyl)-quinoline-3-carboxylic acid amide] |
| 93 nM | 138% | CCCc1nc2cc(C(F)(F)F)ccc2c(C)c1C(=O)NCc1cccc(F)c1 [Example 4, N-[(3-Fluorophenyl)-methyl]-4-methyl-2-propyl-7-(trifluoromethyl)-quinoline-3-carboxylic acid amide] |
| 152 nM | 137% | CC(C)c1nc2cc(C(F)(F)F)ccc2cc1C(=O)NCc1ccc(F)cc1 [Example 12, N-[(4-Fluorophenyl)-methyl]-2-isopropyl-7-(trifluoromethyl)-quinoline-3-carboxylic acid amide] |
| 92 nM | 187% | Cc1c(C(=O)NCc2cccc(F)c2)c(CC(C)(C)C)nc2cc(C(F)(F)F)ccc12 [Example 18, 2-(2,2-dimethyl-propyl)-N-[(3-fluorophenyl)-methyl]-4-methyl-7-(trifluoromethyl)-quinoline-3-carboxylic acid amide] |
| 120 nM | 149% | Cc1c(C(=O)NCc2ccc(F)cc2)c(CC(C)(C)C)nc2cc(C(F)(F)F)ccc12 [Example 19, 2-(2,2-Dimethyl-propyl)-N-[(4-fluorophenyl)-methyl]-4-methyl-7-(trifluoromethyl)-quinoline-3-carboxylic acid amide] |
| 49 nM | 185% | Cc1c(C(=O)NCc2cccc(F)c2)c(C2CCCC2)nc2cc(C(F)(F)F)ccc12 [Example 20, 2-Cyclopentyl-N-[(3-fluorophenyl)-methyl]-4-methyl-7-(trifluoromethyl)-quinoline-3-carboxylic acid amide] |
| 162 nM | 171% | CC(C)=Cc1nc2cc(C(F)(F)F)ccc2c(C)c1C(=O)NCc1cccc(F)c1 [Example 24, N-[(3-fluorophenyl)-methyl]-4-methyl-2-(2-methyl-prop-1-enyl)-7-(trifluoromethyl)-quinoline-3-carboxylic acid amide] |
| 82 nM | 154% | Cc1c(C(=O)NCc2cccc(F)c2)c(CC(C)C)nc2cc(C(F)(F)F)ccc12 [Example 36, N-[(3-Fluorophenyl)-methyl]-4-methyl-2-(2-methyl-propyl)-7-(trifluoromethyl)-quinoline-3-carboxylic acid amide] |
| 108 nM | 128% | Cc1c(C(=O)NCc2cccc(F)c2)c(C2CC2)nc2cc(C#N)ccc12 [Example 37, 7-Cyano-2-cyclopropyl-N-[(3-fluorophenyl)-methyl]-4-methyl-quinoline-3-carboxylic acid amide] |
| 118 nM | 122% | Cc1c(C(=O)NCc2ccc(F)cc2)c(C2CC2)nc2cc(C#N)ccc12 [Example 38, 7-cyano-2-cyclopropyl-N-[(4-fluorophenyl)-methyl]-4-methyl-quinoline-3-carboxylic acid amide] |
